Test results taken from US5414001A, “Antineoplastic pyrrolo[4,3,2-de]quinolin-8(1H)-ones” (American Cyanamid Company, priority 1993, dated 1995).
≈ marks a conversion by molar mass, not a printed value. Structures can show the parent of a compound that is named as a salt. Where two headings read alike, the source gives them in different places.

Legend:
MIP / SW620 = experiment: SRB cytotoxicity ratio MIP/SW620 (MDR, P-glycoprotein resistance); assay type: cell-based, human; conditions: 2880 min
[1] = system: Ovcar3 human ovarian carcinoma; design: species or system human tumor in Balb/C nu/nu athymic mice; conditions: in vivo
[2] = system: DDP (Cisplatin resistant ovarian carcinoma cell line) / S (A2780); experiment: SRB cytotoxicity ratio DDP/S (cisplatin resistance); assay type: cell-based, human
[3] = system: panel of >20 human tumor cell lines; experiment: In vitro tumor panel evaluation, Sulforhodamine B (SRB) cytotoxicity assay; assay type: cell-based; conditions: for IC50: Homo sapiens
CaCo2 / CX1 [4] = conditions: human, Caco-2, 48 h
Description: (§1) The cytotoxic activity of the pyrrolo[4,3,2-de]quinolin-8(1H)-ones against a panel of >20 human tumor cell lines is determined using the Sulforhodamine B protein dye-binding colorimetric cytotoxicity assay (SRB) described by Skehan et al. (Journal National Cancer Institute 82:1107-1112, 1990), as modified by Monks et al., (Journal National Cancer Institute 83: 757-766, 1991). […] Positive controls (i.e., etoposide) are included in every experiment. Treatments are for 48 hours, after which cells are fixed in 10% trichloroacetic acid (10% final concentration), washed five times with deionized water and stained with SRB solution (0.4% in glacial acetic acid). Protein-bound stain is solubilized with 0.1 ml tris buffer and the adsorbance values are recorded with a microplate reader. Duplicate plates of cells are fixed with trichloroacetic acid at the time of drug addition to establish To values, as described by Monks et al. (JNCl, 83: 757-766, 1991). The effect of drug treatments over the five-long range of concentrations is calculated using the formula, T--To/C--To, to determine the IC50 values.
(§2) 3) The ratio values for DDP/S; CaCo2/CX1; MIP/SW620, and; HCT15/SKBR3 refer to the IC50 value for resistant cell lines included in the tumor cell panel, divided by the IC50 value for corresponding drug sensitive cell lines. For example, DDP is a Cisplatin resistant ovarian carcinoma cell line, and S is the corresponding parent drug sensitive ovarian carcinoma cell line (A2780). […] CaCo2 is a slow growing non P-glycoprotein multidrug resistant colon carcinoma cell line. MIP is a colon carcinoma cell line that expresses P-glycoprotein and is multidrug resistant; SW620 is a drug sensitive colon carcinoma cell line. HCT15 is a colon carcinoma cell line that is resistant to topoisomerase inhibitors and SKBR3 is a breast carcinoma that is very sensitive to topoisomerase inhibitors.

HCT15 / SKBR3 = experiment: SRB cytotoxicity ratio HCT15/SKBR3 (topoisomerase resistance); assay type: cell-based, human; conditions: 2880 min
CaCo2 / CX1 [5] = experiment: SRB cytotoxicity ratio CaCo2/CX1 (growth kinetics); conditions: IC50 resistant / IC50 sensitive cell line, 2880 min
Description: as §1, §2

[6] = human, ddp/s ovarian carcinoma cells, 2880 min
[7] = IC50 resistant / IC50 sensitive cell line, MDR (pglycoprotein) resistance
[8] = IC50 resistant / IC50 sensitive cell line, cisplatin resistance, 2880 min
[9] = Mean IC50 value for all 20 cell lines, 48 hours, read-out: AVG IC50
[10] = least sensitive cell line, 48 hours, read-out: MAX IC50
[11] = most sensitive cell line, 48 hours, read-out: MIN IC50
[12] = IC50 resistant / IC50 sensitive cell line, topoisomerase resistance

Structure (SMILES): COc1cc([C@@H]2c3cc4c(cc3[C@@H](O[C@@H]3O[C@@H]5CO[C@@H](C)O[C@H]5[C@H](O)[C@H]3O)[C@H]3COC(=O)[C@H]23)OCO4)cc(OC)c1O [Etoposide, etoposide, reference compound]
- MIP/SW620 IC50 ratio (MIP / SW620; human, mip/sw620 cells): 1.9
- Ovcar3 Min T/C % [1]: 62%
- cross resistance in the cisplatin resistant cell line DDP [2]: cross resistant
- DDP/S IC50 ratio [2, 6]: 53.0
- IC50 value of DDP higher than the parent cell line [2, 6]: 53 fold
- IC50 ([3]; 48 h, read-out: AVG IC50): 8.7 µg/mL (≈ 14.8 µM)
- IC50 ([3]; 48 h, read-out: MAX IC50): 27.9 µg/mL (≈ 47.4 µM)
- IC50 ([3]; 48 h, read-out: MIN IC50): 0.12 µg/mL (≈ 0.204 µM)
- CaCO2/CX1 IC50 ratio (CaCo2 / CX1 [4]): 4.2
- HCT15/SKBR3 IC50 ratio (HCT15 / SKBR3; human, hct15/skbr3 cells): 22.3
- HCT15 more resistant than SKBR3 (HCT15 / SKBR3; human, hct15/skbr3 cells): 22 fold

Structure (SMILES): Cn1cc2ccnc3c2c1C(=O)C(N)=C3.O=C(O)C(F)(F)F [Example 2, 7-amino-1-methyl-pyrrolo[4,3,2-de]quinolin-8(1H)-one trifluoroacetate]
- CaCO2/CX1 IC50 ratio (CaCo2 / CX1 [5]): 0.6
- MIP/SW620 IC50 ratio (MIP / SW620; [7]): 0.9
- DDP/S IC50 ratio [2, 8]: 1.0
- IC50 [3, 9]: 18 µg/mL
- IC50 [3, 10]: 25.1 µg/mL
- IC50 [3, 11]: 2.03 µg/mL
- HCT15/SKBR3 IC50 ratio (HCT15 / SKBR3; [12]): 6.7

Structure (SMILES): Cn1cc2c3c1C(=O)C(N/C=C/c1ccc(O)cc1)=CC3=NCC2.O=C(O)C(F)(F)F [Example 5, (E)-7-[[2-(4-hydroxyphenyl)ethenyl]amino]-1-methyl-3,4-dihydropyrrolo[4,3,2-de]quinolin-8(1H)-one trifluoroacetate]
- CaCO2/CX1 IC50 ratio (CaCo2 / CX1 [5]): 1.5
- MIP/SW620 IC50 ratio (MIP / SW620; [7]): 1.1
- DDP/S IC50 ratio [2, 8]: 1.1
- IC50 [3, 9]: 2.3 µg/mL
- IC50 [3, 10]: 3.44 µg/mL
- IC50 [3, 11]: 1.23 µg/mL
- HCT15/SKBR3 IC50 ratio (HCT15 / SKBR3; [12]): 0.3

Structure (SMILES): C[N+]1=C2C=C(N)C(=O)c3c2c(cn3Cc2cccc(Cl)c2)CC1 [Example 21, 7-Amino-1-[(3-chlorophenyl]methyl]-1,3,4,8-tetrahydro-5-methyl-8-oxo-pyrrolo[4,3,2-de]quinolinium trifluoroacetate]
- MIP/SW620 IC50 ratio (MIP / SW620; [7]): 7.0
- DDP/S IC50 ratio [2, 8]: 1.5
- IC50 [3, 9]: 1.4 µg/mL
- IC50 [3, 10]: 4.47 µg/mL
- IC50 [3, 11]: 0.28 µg/mL
- CaCO2/CX1 IC50 ratio (CaCo2 / CX1 [4]): 0.8
- HCT15/SKBR3 IC50 ratio (HCT15 / SKBR3; [12]): 7.1

Structure (SMILES): COc1cccc(Cn2cc3c4c2C(=O)C(N)=CC4=[N+](C)CC3)c1 [Example 23, 7-Amino-1,3,4,8-tetrahydro-1-[(3-methoxyphenyl)methyl]-5-methyl-8-oxo-pyrrolo[4,3,2-de]quinolinium trifluoroacetate]
- MIP/SW620 IC50 ratio (MIP / SW620; [7]): 8.6
- DDP/S IC50 ratio [2, 8]: 1.2
- IC50 [3, 9]: 2.1 µg/mL
- IC50 [3, 10]: 4.2 µg/mL
- IC50 [3, 11]: 0.45 µg/mL
- CaCO2/CX1 IC50 ratio (CaCo2 / CX1 [4]): 1.0
- HCT15/SKBR3 IC50 ratio (HCT15 / SKBR3; [12]): 3.8

Structure (SMILES): CNC1=CC2=[N+](C)CCc3cn(C)c(c32)C1=O [Example 30, 1,3,4,8-Tetrahydro-1,5-dimethyl-7-(methylamino)-8-oxo-pyrrolo[4,3,2-de]quinolinium trifluoroacetate]
- MIP/SW620 IC50 ratio (MIP / SW620; [7]): 65.8
- DDP/S IC50 ratio [2, 8]: 1.1
- IC50 [3, 9]: 4.5 µg/mL
- IC50 [3, 10]: 25.9 µg/mL
- IC50 [3, 11]: 0.41 µg/mL
- CaCO2/CX1 IC50 ratio (CaCo2 / CX1 [4]): 3.6
- HCT15/SKBR3 IC50 ratio (HCT15 / SKBR3; [12]): 12.7

Structure (SMILES): C=CC[N+]1=C2C=C(N)C(=O)c3c2c(cn3C)CC1 [Example 31, 7-Amino-1,3,4,8-tetrahydro-1-methyl-8-oxo-5-(2-propenyl)[4,3,2-de]quinolinium trifluoroacetate]
- MIP/SW620 IC50 ratio (MIP / SW620; [7]): 8.0
- DDP/S IC50 ratio [2, 8]: 1.2
- IC50 [3, 9]: 1.7 µg/mL
- IC50 [3, 10]: 2.59 µg/mL
- IC50 [3, 11]: 0.34 µg/mL
- CaCO2/CX1 IC50 ratio (CaCo2 / CX1 [4]): 0.6
- HCT15/SKBR3 IC50 ratio (HCT15 / SKBR3; [12]): 2.7

Structure (SMILES): CNC1=CC2=[N+](C)CCc3c[nH]c(c32)C1=O [Example 35, 1,3,4,8-Tetrahydro-5-methyl-7-(methylamino)-8-oxo-pyrrolo[4,3,2-de]quinolinium trifluoroacetate]
- MIP/SW620 IC50 ratio (MIP / SW620; [7]): 20.3
- DDP/S IC50 ratio [2, 8]: 1.0
- IC50 [3, 9]: 5.7 µg/mL
- IC50 [3, 10]: 24.4 µg/mL
- IC50 [3, 11]: 1.2 µg/mL
- CaCO2/CX1 IC50 ratio (CaCo2 / CX1 [4]): 1.3
- HCT15/SKBR3 IC50 ratio (HCT15 / SKBR3; [12]): 9.1

Structure (SMILES): CCCCCCCCN(CCCCCCCC)C1=CC2=[N+](C)CCc3c[nH]c(c32)C1=O [Example 39, 1,3,4,8-Tetrahydro-5-methyl-7-(dioctylamino)-8-oxo-pyrrolo[4,3,2-de]quinolinium trifluoroacetate]
- MIP/SW620 IC50 ratio (MIP / SW620; [7]): 9.0
- DDP/S IC50 ratio [2, 8]: 1.7
- IC50 [3, 9]: 0.8 µg/mL
- IC50 [3, 10]: 2.71 µg/mL
- IC50 [3, 11]: 0.19 µg/mL
- CaCO2/CX1 IC50 ratio (CaCo2 / CX1 [4]): 4.8
- HCT15/SKBR3 IC50 ratio (HCT15 / SKBR3; [12]): 122.0

Structure (SMILES): C[N+]1=C2C=C(NCc3ccoc3)C(=O)c3[nH]cc(c32)CC1.O=C([O-])C(F)(F)F [Example 43, 7-[(3-Furanylmethyl)amino]-1,3,4,8-tetrahydro-5-methyl-8-oxo-pyrrolo[4,3,2-de]quinolinium trifluoroacetate]
- MIP/SW620 IC50 ratio (MIP / SW620; [7]): 90.8
- DDP/S IC50 ratio [2, 8]: 1.6
- AVG IC50 ([3]; Mean IC50 value for all 20 cell lines, 48 hours): 6.4 µg/mL
- MAX IC50 ([3]; least sensitive cell line, 48 hours): 36.3 µg/mL
- MIN IC50 ([3]; most sensitive cell line, 48 hours): 0.27 µg/mL
- CaCO2/CX1 IC50 ratio (CaCo2 / CX1 [4]): 19.8
- HCT15/SKBR3 IC50 ratio (HCT15 / SKBR3; [12]): 78.5

Structure (SMILES): C[N+]1=C2C=C(NCc3cccc4ccccc34)C(=O)c3[nH]cc(c32)CC1 [Example 44, 1,3,4,8-Tetrahydro-5-methyl-7-[(1-naphthalenylmethyl)amino]-8-oxo-pyrrolo[4,3,2-de]quinolinium trifluoroacetate]
- MIP/SW620 IC50 ratio (MIP / SW620; [7]): 67.8
- DDP/S IC50 ratio [2, 8]: 11.3
- IC50 [3, 9]: 5.6 µg/mL
- IC50 [3, 10]: 27.1 µg/mL
- IC50 [3, 11]: 0.02 µg/mL
- CaCO2/CX1 IC50 ratio (CaCo2 / CX1 [4]): 32.0
- HCT15/SKBR3 IC50 ratio (HCT15 / SKBR3; [12]): 1140.0

Structure (SMILES): C[N+]1=C2C=C(NCc3ccccc3)C(=O)c3[nH]cc(c32)CC1 [Example 46, 1,3,4,8-Tetrahydro-5-methyl-8-oxo-7-[(phenylmethyl)amino]-pyrrolo[4,3,2-de]quinolinium trifluoroacetate]
- MIP/SW620 IC50 ratio (MIP / SW620; [7]): 8.3
- DDP/S IC50 ratio [2, 8]: 1.6
- IC50 [3, 9]: 7 µg/mL
- IC50 [3, 10]: 22.3 µg/mL
- IC50 [3, 11]: 0.2 µg/mL
- CaCO2/CX1 IC50 ratio (CaCo2 / CX1 [4]): 5.4
- HCT15/SKBR3 IC50 ratio (HCT15 / SKBR3; [12]): 113.0

Structure (SMILES): C[N+]1=C2C=C(NCc3ccc(O)cc3)C(=O)c3[nH]cc(c32)CC1 [Example 49, 1,3,4,8-Tetrahydro-7-[[(4-hydroxyphenyl)methyl]amino]-5-methyl-8-oxo-pyrrolo[4,3,2-de]quinolin-8 (1H)-one trifluoroacetate]
- MIP/SW620 IC50 ratio (MIP / SW620; [7]): 4.2
- DDP/S IC50 ratio [2, 8]: 1.1
- IC50 [3, 9]: 3.3 µg/mL
- IC50 [3, 10]: 13.9 µg/mL
- IC50 [3, 11]: 0.92 µg/mL
- CaCO2/CX1 IC50 ratio (CaCo2 / CX1 [4]): 1.0
- HCT15/SKBR3 IC50 ratio (HCT15 / SKBR3; [12]): 15.4

Structure (SMILES): CN1CCc2cn(C)c3c2C1=CC(=O)C3=O [Example 52, 1,3,4,5-Tetrahydro-1,5-dimethyl-pyrrolo[4,3,2-de]quinoline-7,8-dione]
- MIP/SW620 IC50 ratio (MIP / SW620; [7]): 1.5
- DDP/S IC50 ratio [2, 8]: 1.1
- IC50 [3, 9]: 25 µg/mL (≈ 116 µM)
- IC50 [3, 10]: 50 µg/mL (≈ 231 µM)
- IC50 [3, 11]: 12.3 µg/mL (≈ 56.9 µM)
- CaCO2/CX1 IC50 ratio (CaCo2 / CX1 [4]): 0.8
- HCT15/SKBR3 IC50 ratio (HCT15 / SKBR3; [12]): 2.6

Structure (SMILES): C[N+]1=C2C=C(N)C(=O)c3c2c(cn3CCC#N)CC1 [Example 56, 7-Amino-1-(2-cyanoethyl)-1,3,4,8-tetrahydro-5-methyl-8-oxo-pyrrolo[4,3,2-de]quinolinium trifluoroacetate]
- MIP/SW620 IC50 ratio (MIP / SW620; [7]): 2.0
- DDP/S IC50 ratio [2, 8]: 1.0
- IC50 [3, 9]: 4.7 µg/mL
- IC50 [3, 10]: 21.5 µg/mL
- IC50 [3, 11]: 1.56 µg/mL
- CaCO2/CX1 IC50 ratio (CaCo2 / CX1 [4]): 1.4
- HCT15/SKBR3 IC50 ratio (HCT15 / SKBR3; [12]): 3.1

Structure (SMILES): C[N+]1=C2C=C(NCC(O)c3ccccc3)C(=O)c3[nH]cc(c32)CC1 (centres unmarked) [Example 58, 1,3,4,8-Tetrahydro-7-[2-hydroxy-2-phenylethyl)amino]-5-methyl-8-oxo-pyrrolo[4,3,2-de]quinolinium trifluoroacetate]
- MIP/SW620 IC50 ratio (MIP / SW620; [7]): 167.0
- DDP/S IC50 ratio [2, 8]: 1.5
- IC50 [3, 9]: 11 µg/mL
- IC50 [3, 10]: 50 µg/mL
- IC50 [3, 11]: 0.22 µg/mL
- CaCO2/CX1 IC50 ratio (CaCo2 / CX1 [4]): 34.0
- HCT15/SKBR3 IC50 ratio (HCT15 / SKBR3; [12]): 227.0
